Type in all cases: in vivo
The test system of test [1] is rats in scopolamine induced memory deficit. The test can be described thus: Scopolamine induced memory deficit, water labyrinth learning test. Particulars: scopolamine model, combination 2 × (30 + 10) mg/kg/day p.o.
Another test deals with normal rats. The test can be described thus: Learning process of normal rats in water labyrinth. The settings on record: for Number of errors Mean ± S.E.M. / Swimming time (sec) Mean ± SEM.: p.o., Vit.-C 2 × 10, Lecithin 2 × 30, combination 2 × (30 + 10) mg/kg/day. The source says:
Ascorbic acid and lecithin were ineffective when they were given separately (Table I.).

The next test concerns normal mice. The experiment in a line: Swimming test, physical performance of normal mice. Particulars: for Swimming time (sec) mean ± S.E.M.: p.o., Vit-C 2 × 10, Lecithin 2 × 30, combination 2 × (30 + 10) mg/kg/day. From the text: In the study ascorbic acid was ineffective, when it was given in itself (Table III.).
Setting [2] is: versus vehicle (control) and single components.

2 compounds from patent US20040006048A1, “Combination of lecithin with ascorbic acid” (priority 2002, published 2004) can be followed below.

Consider `CN1[C@@H]2C[C@@H](OC(=O)[C@H](CO)c3ccccc3)C[C@H]1[C@@H]1O[C@@H]12` [Scopolamine, scopolamine], for which the “Number of errors Mean ± S.E.M.” value in test [1] (session 1) was 16.2 ± 0.83; in test [1] (session 2) it was 11.6 ± 0.52^++; in test [1] (session 3), 8.9 ± 0.41^++; in test [1] (session 4) it was 6.3 ± 0.26^++. For the same compound, the entries for the “Swimming time (sec) mean ± S.E.M.” value in test [1] (session 1) and in test [1] (session 2) were 114.7 ± 9.45 s and 73.7 ± 6.22 s, respectively.
As to `O=C1O[C@H]([C@@H](O)CO)C(O)=C1O` [Vit.-C, ascorbic acid], the “Number of errors Mean ± S.E.M.” value is 16.4 ± 0.45 in the test on normal rats (session 1), 11.6 ± 0.40 in the test with normal rats (session 2), 6.2 ± 0.76 in the test on normal rats (session 3) and 3.9 ± 0.35 in the test with normal rats (session 4). In addition, the “Swimming time (sec) Mean ± SEM.” value with normal rats (session 1) is 140.3 ± 9.54 s; in the test on normal rats (session 2) it was 89.9 ± 6.22 s; in the test with normal rats (session 3), 64.9 ± 7.29 s; in the test with normal rats (session 4), 34.8 ± 2.79 s. Besides, the “Effect on the learning process of rats in water labyrinth (in words)” value with normal rats (setting [2]) is “ineffective”. In addition, the “Swimming time (sec) mean ± S.E.M.” value is 76.2 ± 3.7 s in the test with normal mice (1. day starting values); 70.8 ± 3.8 s with normal mice (2. day); 82.2 ± 3.4 s in the test on normal mice (3. day); 88.8 ± 6.1 s in the test on normal mice (4. day); 90.0 ± 6.9 s in the test with normal mice (5. day). Moreover, the “Effect on the physical performance of mice in swimming test (in words)” value with normal mice (setting [2]) is “ineffective”.
